According to article PMC6003569, “Novel fluorinated carbonic anhydrase IX inhibitors reduce hypoxia-induced acidification and clonogenic survival of cancer cells” (Oncotarget, 2018):
Entries after “also recorded” stand apart in the source; their conditions may differ. Read-outs that look alike come from different tables or passages of the source.

Key:
[1] = target: T1, CA VB (Homo sapiens, UniProt Q9Y2D0); assay: Fluorescent thermal shift assay (FTSA); assay type: binding; details: pH 7.0, 37° C
T1 construct: 12 recombinant catalytic domains of human active CA isoforms as determined by FTSA
Protocol: (§1) The binding affinity of synthesized compounds to recombinant human CAs was measured by the fluorescent thermal shift assay (FTSA) where the thermal stabilization of the protein by the compound was determined by following the fluorescence dependence on temperature at various added compound concentrations. The melting temperature (Tm) of CA was measured using the Corbett Rotor-Gene 6000 instrument (QIAGEN Rotor-Gene Q, excitation at 365 ± 20 nm, emission detection at 460 ± 15 nm). The protein was heated from 25 to 99° C at a rate of 1° C/min and the fluorescence change of the solvatochromic dye 8-anilino-1-naphthalene sulfonate (ANS) was followed. The samples consisted of 5–10 μM CA, 0–200 μM ligand, 50 μM ANS, and 50 mM sodium phosphate buffer containing 100 mM NaCl at pH 7.0, with the final DMSO concentration of 2% (v/v). Protein unfolding profiles and the melting temperatures were determined at each ligand concentration while recording extrinsic fluorescence of ANS. Data analysis was performed as previously described. All experiments were repeated at least twice.

[2] = target: T2, CA I (Homo sapiens, UniProt P00915); assay: Fluorescent thermal shift assay (FTSA); assay type: binding; details: pH 7.0, 37° C
T2 construct: 12 recombinant catalytic domains of human active CA isoforms as determined by FTSA
Protocol: as §1

[3] = target: T3, CA VA (Homo sapiens, UniProt P35218); assay: Fluorescent thermal shift assay (FTSA); assay type: binding; details: pH 7.0, 37° C
T3 construct: 12 recombinant catalytic domains of human active CA isoforms as determined by FTSA
Protocol: as §1

[4] = target: T4, CA VII (Homo sapiens, UniProt P43166); assay: Fluorescent thermal shift assay (FTSA); assay type: binding; details: pH 7.0, 37° C
T4 construct: 12 recombinant catalytic domains of human active CA isoforms as determined by FTSA
Protocol: as §1

[5] = target: T5, CA II (Homo sapiens, UniProt P00918); assay: Fluorescent thermal shift assay (FTSA); assay type: binding; details: pH 7.0, 37° C
T5 construct: 12 recombinant catalytic domains of human active CA isoforms as determined by FTSA
Protocol: as §1

[6] = target: T6, CA XIII (Homo sapiens, UniProt Q8N1Q1); assay: Fluorescent thermal shift assay (FTSA); assay type: binding; details: pH 7.0, 37° C
T6 construct: 12 recombinant catalytic domains of human active CA isoforms as determined by FTSA
Protocol: as §1

[7] = target: T7, CA XIV (Homo sapiens, UniProt Q9ULX7); assay: Fluorescent thermal shift assay (FTSA); assay type: binding; details: pH 7.0, 37° C
T7 construct: 12 recombinant catalytic domains of human active CA isoforms as determined by FTSA
Protocol: as §1

[8] = target: T8, CA XII (Homo sapiens, UniProt O43570); assay: Fluorescent thermal shift assay (FTSA); assay type: binding; details: pH 7.0, 37° C
T8 construct: 12 recombinant catalytic domains of human active CA isoforms as determined by FTSA
Protocol: as §1

[9] = target: T9, CA IX (Homo sapiens, UniProt Q16790); assay: Fluorescent thermal shift assay (FTSA); assay type: binding; details: pH 7.0, 37° C
T9 construct: 12 recombinant catalytic domains of human active CA isoforms as determined by FTSA
Protocol: as §1

[10] = target: T10, CA VI (Homo sapiens, UniProt P23280); assay: Fluorescent thermal shift assay (FTSA); assay type: binding; details: pH 7.0, 37° C
T10 construct: 12 recombinant catalytic domains of human active CA isoforms as determined by FTSA
Protocol: as §1

[11] = target: T11, CA III (Homo sapiens, UniProt P07451); assay: Fluorescent thermal shift assay (FTSA); assay type: binding; details: pH 7.0, 37° C
T11 construct: 12 recombinant catalytic domains of human active CA isoforms as determined by FTSA
Protocol: as §1

[12] = target: T12, CA IV (Homo sapiens, UniProt P22748); assay: Fluorescent thermal shift assay (FTSA); assay type: binding; details: pH 7.0, 37° C
T12 construct: 12 recombinant catalytic domains of human active CA isoforms as determined by FTSA
Protocol: as §1

[13] = target: T9, CA IX; assay: Stopped-flow CO2 hydration inhibition assay (SFA); assay type: biochemical; details: pH 7.5, 25° C, value in parentheses
Protocol: (§2) The enzymatic activity of carbonic anhydrase isoforms and their inhibition was determined by the stopped-flow CO2 hydration assay where the formed acid was followed by the absorbance change of a pH indicator. The Applied Photophysics SX.18MV-R stopped-flow spectrometer was used to measure the absorbance change of Phenol-Red pH indicator at 557 nm. Saturated CO2 solution was prepared by bubbling the CO2 gas in MilliQ water at 25° C for 1 h. Experiments were performed at 25° C using 25 mM Hepes buffer containing 50 mM NaCl (pH 7.5), 0–10 μM compound with the final 0.4% (v/v) DMSO concentration. The final enzyme concentration was 10 nM for CA IX and 20 nM for CA XII. Raw curves of absorbance change were analyzed using Origin 8.1 (OriginLab Corporation) and the slope values were used to evaluate the rates of CO2 hydration. Spontaneous CO2 hydration rate was used as a zero value, while the CA catalyzed reaction rate - as a maximum value.

[14] = system: H460 cells; assay: alamarBlue cell viability assay; assay type: cell-based; details: Homo sapiens, NCI-H460, 72 h
Protocol: (§3) Cytotoxicity of inhibitors was determined by the alamarBlue® cell viability assay (Life Technologies). […] Briefly, cells were seeded in 96-well plates and allowed to attach overnight in normoxia. […] After 72 h, cells were incubated with 10% alamarBlue® for 2 h under normoxia at 37° C. The fluorescence signal was measured using the multi-mode microplate reader (FLUOstar® Omega, BMG Labtech) at 580 nm (excitation wavelength 540 nm). Response to treatments was quantified by evaluating EC50 values (concentration of inhibitor that leads to half-maximum viability response determined by Hill fit).

[15] = system: HeLa cells; assay: alamarBlue cell viability assay; assay type: cell-based, human; details: 72 h; for EC50: Homo sapiens, HeLa
Protocol: as §3

[16] = system: H460 cells; assay: Extracellular acidification (pH) assay; assay type: cell-based, human; details: H460, hypoxia 0.2% O2, 72 h
[17] = system: extracellular CA in intact hypoxic MDA-MB-231 cells; details: 1 μM; cited from earlier work
[18] = system: CA activity in hypoxic HeLa CA IX KO cells; assay: CA catalytic activity via MS gas-analysis, CA IX knockout cells; assay type: cell-based, human; details: both HeLa CA IX KO lines
Protocol: The reaction sequence of ^18O loss from ^13C^18O^18O (m/z = 49) over the intermediate product ^13C^18O^16O (m/z = 47) and the end product ^13C^16O^16O (m/z = 45) was monitored with a quadrupole mass spectrometer (OmniStar GSD 320; Pfeiffer Vacuum, Asslar, Germany). The relative ^18O enrichment was calculated from the measured 45, 47, and 49 m/z abundance as a function of time according to: log enrichment = log (49×100/(49+47+45)). For the calculation of CA activity, the rate of ^18O depletion was obtained from the linear slope of the log enrichment over the time, using OriginPro 8.6 (OriginLab Corporation). The rate was compared with the corresponding rate of the non-catalyzed reaction. Enzyme activity in units (U) was calculated from these two values as defined by Badger and Price [59]. […] For every measurement, the non-catalyzed reaction was determined for 6 min in the presence of inhibitor, before cell suspension was added to the measuring cuvette and the catalyzed reaction was determined for 8 min. […] IC50 values were determined by Hill equation using OriginPro 8.6. To investigate specificity of the inhibitors in HeLa WT and HeLa CA IX KO cells, the non-catalyzed reaction was determined for 6 min in the absence of inhibitor, before a suspension of 5 × 10^6 cells was added to the measuring cuvette. […]

[19] = target: T8, CA XII; assay: Stopped-flow CO2 hydration inhibition assay (SFA); assay type: biochemical; details: pH 7.5, 25° C, value in parentheses
Protocol: as §2

[20] = system: HeLa cells; assay: Extracellular acidification (pH) assay; assay type: cell-based, human; details: for hypoxia-induced extracellular acidification: hypoxia 0.2% O2, 72 h, 5–50 μM; for effect on extracellular acidification under normoxia: normoxia 21% O2, 72 h
[21] = system: AsPC-1 cells; assay: Extracellular acidification (pH) assay; assay type: cell-based, human; details: AsPC-1, hypoxia 0.2% O2, 72 h
[22] = system: AsPC-1 cells; assay: alamarBlue cell viability assay; assay type: cell-based; details: Homo sapiens, ASPC1, 48 h
Protocol: as §3

[23] = system: MDA-MB-231 cells; assay: alamarBlue cell viability assay; assay type: cell-based; details: Homo sapiens, MDA-MB-231, 72 h
Protocol: as §3

[24] = system: 4 investigated cell lines; assay: Extracellular acidification (pH) assay, cell line panel; assay type: cell-based, human; details: 50 μM, hypoxia 0.2% O2, 72 h
Protocol: HeLa, H460, MDA-MB-231, and AsPC-1 cells were cultured in DMEM (Lonza) supplemented with 10% FBS (Lonza), whereas A549 cells were grown in-house made analogous medium differing only by a lower amount of sodium bicarbonate (final concentration 10 mM). Cell densities for each cell line were optimized to get ~100% confluence at the end of experiment under normoxic and hypoxic (0.2% O2) conditions upon vehicle (0.05% DMSO) treatment. Such conditions were necessary to obtain the highest possible level of CA IX-dependent extracellular acidification. Cells were plated in 6 cm dishes and allowed to attach overnight in normoxia. […] Results are shown as a difference between the pH of medium in the control plate (without seeded cells) and the pH of medium in the targeted plate (cells exposed to the compound or vehicle).

[25] = system: A549 cells; assay: alamarBlue cell viability assay; assay type: cell-based; details: Homo sapiens, A549, 72 h
Protocol: as §3

[26] = system: H460 spheroids; assay: Clonogenic cell survival assay, 3D spheroids; assay type: cell-based, human; details: non-hypoxic (day 4) versus hypoxic (day 11) H460 spheroids, 5–15 μM, 24 h
Protocol: Clonogenic survival of HeLa cell monolayers was evaluated using cell densities applied in the extracellular acidification assay to determine the effect of inhibitors on the clonogenic cell survival while having the same acidification conditions. […] Then cells were trypsinized, reseeded in triplicate with known cell densities and allowed to form colonies for 14 days. […] Single cell suspensions were prepared and cells were plated in triplicate with known cell densities and allowed to form colonies for 14 days. […] Surviving fraction was normalized to vehicle (DMSO). To prepare plates for the growth of attachment-free H460 spheroids, autoclaved 1.5% w/v agarose (Sigma-Aldrich) was dispensed in the inner 60 wells of 96-well plates (50 μL/well) and left for polymerization at room temperature for 30 min. H460 cells were plated in modified 96-well plates to the surface of agarose menisci with a density of 500 cells/well. The DMEM was refreshed every two days. After 7 or 11 days in culture, spheroids were incubated with 20 μg/mL pimonidazole (PIMO, Hypoxyprobe-1, HP-1000, BioConnect) for 2 h at 37° C, collected and cryoconserved for immunofluorescence analysis (see below).

[27] = H460, 0.2% O2 (hypoxia), read-out: EC50
[28] = H460, 21% O2 (normoxia), read-out: EC50
[29] = 0.2% O2 (hypoxia), read-out: EC50
[30] = 21% O2 (normoxia), read-out: EC50

T8 sequence (O43570 30-289 limits assumed): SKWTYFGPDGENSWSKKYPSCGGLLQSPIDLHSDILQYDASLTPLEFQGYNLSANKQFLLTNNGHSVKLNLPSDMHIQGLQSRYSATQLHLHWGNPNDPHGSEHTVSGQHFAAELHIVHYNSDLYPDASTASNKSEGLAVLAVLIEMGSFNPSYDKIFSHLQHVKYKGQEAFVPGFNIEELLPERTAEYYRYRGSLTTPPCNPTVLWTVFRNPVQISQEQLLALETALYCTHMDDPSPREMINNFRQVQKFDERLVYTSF
T11 sequence (P07451 3-259 limits assumed): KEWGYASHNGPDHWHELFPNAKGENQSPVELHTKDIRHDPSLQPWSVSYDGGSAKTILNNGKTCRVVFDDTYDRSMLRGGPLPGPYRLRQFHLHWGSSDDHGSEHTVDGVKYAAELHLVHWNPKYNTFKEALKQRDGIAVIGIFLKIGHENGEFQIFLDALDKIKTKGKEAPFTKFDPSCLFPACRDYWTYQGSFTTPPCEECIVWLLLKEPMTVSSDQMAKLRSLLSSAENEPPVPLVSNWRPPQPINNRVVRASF
T12 sequence (P22748 21-285 limits assumed): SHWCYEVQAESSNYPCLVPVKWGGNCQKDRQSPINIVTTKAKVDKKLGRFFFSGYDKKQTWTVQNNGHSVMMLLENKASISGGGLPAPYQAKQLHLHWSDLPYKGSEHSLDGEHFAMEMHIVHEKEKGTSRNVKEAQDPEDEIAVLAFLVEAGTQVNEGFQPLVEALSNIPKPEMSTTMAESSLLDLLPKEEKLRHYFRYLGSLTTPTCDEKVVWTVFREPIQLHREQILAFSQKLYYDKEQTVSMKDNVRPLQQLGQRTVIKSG
T1 sequence (Q9Y2D0 37-296 limits assumed): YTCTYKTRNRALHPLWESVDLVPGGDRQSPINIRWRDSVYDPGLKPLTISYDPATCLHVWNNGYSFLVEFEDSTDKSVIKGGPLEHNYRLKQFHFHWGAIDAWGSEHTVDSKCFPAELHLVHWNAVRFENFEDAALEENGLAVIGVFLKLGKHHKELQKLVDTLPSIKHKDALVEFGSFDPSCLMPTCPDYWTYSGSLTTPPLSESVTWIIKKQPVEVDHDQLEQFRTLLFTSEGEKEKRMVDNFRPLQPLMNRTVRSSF
T2 sequence (P00915 4-261 limits assumed): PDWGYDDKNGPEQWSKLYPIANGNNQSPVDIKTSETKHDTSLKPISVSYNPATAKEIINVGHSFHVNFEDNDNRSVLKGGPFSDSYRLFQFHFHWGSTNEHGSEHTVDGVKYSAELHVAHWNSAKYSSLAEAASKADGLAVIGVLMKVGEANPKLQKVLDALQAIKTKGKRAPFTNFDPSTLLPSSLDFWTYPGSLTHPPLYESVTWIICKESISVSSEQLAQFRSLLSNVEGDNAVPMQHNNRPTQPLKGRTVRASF
T4 sequence (P43166 5-262 limits assumed): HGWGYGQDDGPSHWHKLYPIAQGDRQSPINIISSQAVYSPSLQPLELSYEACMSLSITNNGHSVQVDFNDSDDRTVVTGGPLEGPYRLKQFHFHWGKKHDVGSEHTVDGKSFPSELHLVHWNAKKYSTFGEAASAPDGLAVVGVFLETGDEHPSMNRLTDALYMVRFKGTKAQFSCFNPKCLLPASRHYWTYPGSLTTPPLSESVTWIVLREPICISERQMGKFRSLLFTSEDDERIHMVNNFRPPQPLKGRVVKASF
T6 sequence (Q8N1Q1 4-261 limits assumed): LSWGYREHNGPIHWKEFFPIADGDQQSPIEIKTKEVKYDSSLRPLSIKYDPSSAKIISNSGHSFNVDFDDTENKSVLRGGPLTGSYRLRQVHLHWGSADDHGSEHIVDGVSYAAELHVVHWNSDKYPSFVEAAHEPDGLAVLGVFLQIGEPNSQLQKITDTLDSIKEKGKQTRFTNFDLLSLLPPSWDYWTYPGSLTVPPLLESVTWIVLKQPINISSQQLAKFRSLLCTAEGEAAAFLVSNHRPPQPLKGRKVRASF
T3 sequence (P35218 39-296 limits assumed): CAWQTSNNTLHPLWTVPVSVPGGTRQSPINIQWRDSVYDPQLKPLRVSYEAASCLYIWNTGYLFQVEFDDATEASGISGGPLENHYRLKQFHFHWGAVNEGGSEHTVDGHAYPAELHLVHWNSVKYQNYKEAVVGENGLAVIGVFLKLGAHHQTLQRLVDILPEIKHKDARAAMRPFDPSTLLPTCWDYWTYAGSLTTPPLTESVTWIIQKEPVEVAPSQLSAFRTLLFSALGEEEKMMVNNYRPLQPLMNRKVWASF
T10 sequence (P23280 21-278 limits assumed): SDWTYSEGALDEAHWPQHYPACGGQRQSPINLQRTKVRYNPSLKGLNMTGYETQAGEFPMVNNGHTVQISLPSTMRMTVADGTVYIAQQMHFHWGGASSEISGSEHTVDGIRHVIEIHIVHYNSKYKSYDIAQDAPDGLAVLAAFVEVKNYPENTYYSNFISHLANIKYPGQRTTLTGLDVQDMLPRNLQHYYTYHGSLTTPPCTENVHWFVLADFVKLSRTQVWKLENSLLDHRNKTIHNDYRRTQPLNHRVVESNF
T7 sequence (Q9ULX7 20-278 limits assumed): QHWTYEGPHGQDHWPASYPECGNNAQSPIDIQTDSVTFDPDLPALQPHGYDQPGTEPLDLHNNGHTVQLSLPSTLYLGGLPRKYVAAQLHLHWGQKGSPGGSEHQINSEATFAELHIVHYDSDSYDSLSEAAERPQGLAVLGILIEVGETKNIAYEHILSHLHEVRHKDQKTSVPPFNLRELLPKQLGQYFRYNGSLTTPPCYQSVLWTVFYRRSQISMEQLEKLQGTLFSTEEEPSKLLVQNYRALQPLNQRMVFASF

Row | Kd [1] | Kd [2] | Kd [3] | Kd [4] | Kd [5] | Kd [6] | Kd [7] | Kd [8] | Kd [9] | Kd [10] | Kd [11] | Kd [12] | Ki [13] | EC50 [14, 27] | EC50 [14, 28] | EC50 [15, 29] | EC50 [15, 30] | SMILES | hypoxia-induced extracellular acidification [20] | effect on extracellular acidification under normoxia [20] | further results
1 | 0.1 µM | 5 µM | 5 µM | 0.1 µM | 1 µM | 0.04 µM | 0.17 µM | 0.37 µM | 0.0002 µM | 26.3 µM | ≥ 200 µM | 1.82 µM | < 0.001 µM | > 150 µM | 83.3 ± 15.3 µM | > 150 µM | 93.3 ± 5.8 µM | NS(=O)(=O)c1c(F)c(F)c(SCCc2ccc(C(=O)O)cc2)c(F)c1NC1CCCCCCC1 [VR16-10, 4-(2-{[4-(Aminosulfonyl)-3-(cyclooctylamino)-2,5,6-tetrafluorophenyl]thio}ethyl)benzoic acid] | – | – | Cytotoxic ratio (CR) of selectivity to hypoxia ([15]; human, HeLa cells): > 0.62; hypoxia-induced extracellular acidification [16]: Dose-dependent reduction; also recorded: smallest, albeit significant (p < 0.05), impact
2 | – | – | – | – | – | – | – | – | – | – | – | – | – | – | – | – | – | CC(=O)Nc1nnc(S(N)(=O)=O)s1 [acetazolamide] | – | – | Extracellular CA activity [17]: significantly reduced
3 | 45 µM | ≥ 200 µM | ≥ 200 µM | 37 µM | ≥ 200 µM | 0.02 µM | 0.17 µM | 0.71 µM | 0.00016 µM | ≥ 200 µM | ≥ 200 µM | ≥ 200 µM | < 0.001 µM | 40 ± 9.6 µM | 19.3 ± 3.6 µM | 40.8 ± 9.6 µM | 20.2 ± 4.3 µM | NS(=O)(=O)c1c(F)c(F)c(SCCc2ccc(C(=O)O)cc2)c(F)c1NC1CCCCCCCCCCC1 [VR16-09, 4-(2-{[4-(Aminosulfonyl)-3-(cyclododecylamino)-2,5,6-tetrafluorophenyl]thio}ethyl)benzoic acid] | significantly (p < 0.05) reduced | negligible | CA activity after addition of inhibitor ([18]; 300 nM): did not alter CA activity; Ki [19]: 0.1 µM; hypoxia-induced acidosis [21]: increased; EC50 ([22]; AsPC-1, 0.2% O2 (hypoxia), read-out: EC50): 160 ± 17 µM; EC50 ([22]; AsPC-1, 21% O2 (normoxia), read-out: EC50): 153 ± 23 µM; EC50 ([23]; MDA-MB-231, 0.2% O2 (hypoxia), read-out: EC50): 84.2 ± 4.9 µM; EC50 ([23]; MDA-MB-231, 21% O2 (normoxia), read-out: EC50): 74.2 ± 3.8 µM; hypoxia-induced acidosis [24]: significantly reduced; EC50 ([25]; A549, 0.2% O2 (hypoxia), read-out: EC50): 76.7 ± 2.9 µM; EC50 ([25]; A549, 21% O2 (normoxia), read-out: EC50): 17 ± 1 µM; clonogenic survival of cells derived from spheroids [26]: hypoxia-dependent effect on clonogenic survival
4 | – | – | – | – | – | – | – | – | – | – | – | – | – | – | – | – | – | NS(=O)(=O)c1c(F)c(F)c(SCCO)c(F)c1NC1CCCCCCC1 [VD12-09] | significantly (p < 0.05) reduced | negligible | CA activity after addition of inhibitor ([18]; 30 μM): did not alter CA activity; EC50 ([22]; AsPC-1, 0.2% O2 (hypoxia)): 83.3 ± 5.8 µM; EC50 ([22]; AsPC-1, 21% O2 (normoxia)): 100 ± 20 µM; EC50 ([23]; MDA-MB-231, 0.2% O2 (hypoxia)): 67.6 ± 7.1 µM; EC50 ([23]; MDA-MB-231, 21% O2 (normoxia)): 55.4 ± 6.6 µM; EC50 ([14]; H460, 0.2% O2 (hypoxia)): 37 ± 7.6 µM; EC50 ([14]; H460, 21% O2 (normoxia)): 17.8 ± 2.2 µM; EC50 ([15]; 0.2% O2 (hypoxia)): 46.9 ± 7 µM; EC50 ([15]; 21% O2 (normoxia)): 21.6 ± 4.1 µM; EC50 ([25]; A549, 0.2% O2 (hypoxia)): 98.8 ± 8.5 µM; EC50 ([25]; A549, 21% O2 (normoxia)): 33.8 ± 2.5 µM
